Results taken from patent publication US5298622A, “Spiroindane opiate analogs” (priority 1993, dated 1994).
Non-standard residues stand in square brackets, D forms with d. Residues, ends and D or L forms follow the SMILES beside them. *: point of attachment. Tyr(Nα,Nα-allyl2) = C=CCN(CC=C)[C@@H](Cc1ccc(O)cc1)C(=O)*; Aib = CC(C)(N)C(=O)O

Experiments:
[1] = tested on: mouse vas deferens (MVD), delta opioid receptor; test: Mouse vas deferens (MVD) assay, agonism; format: cell-based; details: % Inhibition at 1000 nM (footnote 4); for inhibition at 1 µM: Mus musculus
Experimental: (§1) 2. Mouse Vas (MVD). This assay was performed according to the description by G. Henderson et al., Brit. J. Pharmacol., 46, 764 (1972). Both vasa deferentia were dissected out of mice and mounted singly through two platinum ring electrodes in a 10 ml organ bath. The bath contained Krebs bicarbonate solution that was continuously bubbled with 95% O2 and 5% CO2. The organ bath was maintained at 37° C. The tissue was attached to an isometric transducer and stimulated transmurally with rectangular pulses ([…], 1 ms duration, supramaximal voltage). Drugs were added cumulatively to the bath in 10- to 50-μl amounts and washed out after noting their maximum effect.
(§2) Concentration-response curves were obtained in the absence (control) and the presence of the antagonist are expressed as IC50 values. The IC50 ratio represents the IC50 in the presence of the antagonist divided by the control IC50 value in the same tissue. Therefore, a high IC50 ratio represents a correspondingly high degree of antagonism at a particular receptor. This IC50 ratio was employed to calculate the Ke value using the equation Ke=[antagonist]/(IC50 ratio-1). Therefore, a low Ke represents a correspondingly high degree of binding at a particular receptor.

[2] = tested on: Guinea Pig Ileal Longitudinal Muscle (GPI), mu opioid receptor; test: cells; format: cell-based
Experimental: (§3) 1. Guinea Pig Ileal Longitudinal Muscle (GPI). Ilea from guinea pigs were taken approximately 10 cm from the ileocecal junction, and a strip of longitudinal muscle with the myenteric plexus attached was prepared by the method of H. B. Rang et al., Brit. J. Pharmacol., 22, 356 (1964). A 1 cm portion of this strip was then mounted between two platinum electrodes placed in a 10 ml organ bath and connected to an isometric transducer; contractions were recorded on a polygraph. Contractions of the ileal strip were initiated by supramaximal rectangular pulses in all preparations (80 V of 0.5 ms duration at a frequency of 0.1 Hz). Krebs bicarbonate solution containing 1.25 μM chlorpheniramine maleate was the bathing solution and was continuously bubbled with 95% O2 and 5% CO2. The organ bath was maintained at 36°-37° C. The longitudinal muscle strip was allowed to equilibrate with continuous stimulation for a minimum of 90 min. Cumulative concentration-response curves were determined after drugs were added to the bath in 10- to 50-μl amounts and washed out with two 10 ml portions of buffer after noting their maximum effects.
as §2

[3] = molecular target: T1, delta opioid receptor (Mus musculus, UniProt P32300); test: MVD assay, antagonism of DADLE (delta); format: cell-based; details: for Kb: read-out: MVD Antagonism Ke (DADLE); for δ-antagonist activity (in words): δ-selective agonist; for MVD Antagonism IC50 Ratio (DADLE): antagonist 100 nM, 15 min, agonist DADLE (delta)
T1 construct: Both vasa deferentia were dissected out of mice; from tissue; host or cells: mouse vas deferens
T1 sequence (P32300 whole entry): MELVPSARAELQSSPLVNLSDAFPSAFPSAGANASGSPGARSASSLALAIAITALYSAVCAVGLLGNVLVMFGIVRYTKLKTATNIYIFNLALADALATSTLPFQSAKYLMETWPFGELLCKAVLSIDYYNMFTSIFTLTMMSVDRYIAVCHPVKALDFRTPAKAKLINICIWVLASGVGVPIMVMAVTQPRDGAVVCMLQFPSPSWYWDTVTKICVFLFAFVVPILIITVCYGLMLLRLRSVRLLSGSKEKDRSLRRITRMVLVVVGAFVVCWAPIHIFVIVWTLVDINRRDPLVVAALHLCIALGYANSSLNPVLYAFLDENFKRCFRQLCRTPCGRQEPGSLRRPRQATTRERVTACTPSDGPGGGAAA
Experimental: as §1, §2

[4] = molecular target: T2, mu opioid receptor (Cavia porcellus, UniProt A0ACM8Q262); test: GPI assay, antagonism of morphine (mu); format: cell-based, guinea pig; details: antagonist 100 nM, 15 min; for Kb: read-out: GPI Antagonism Ke (Morphine), Ke=[antagonist]/(IC50 ratio-1); for GPI Antagonism IC50 Ratio (Morphine): agonist morphine (mu)
T2 construct: antagonism of morphine
T2 sequence (A0ACM8Q262 1-400): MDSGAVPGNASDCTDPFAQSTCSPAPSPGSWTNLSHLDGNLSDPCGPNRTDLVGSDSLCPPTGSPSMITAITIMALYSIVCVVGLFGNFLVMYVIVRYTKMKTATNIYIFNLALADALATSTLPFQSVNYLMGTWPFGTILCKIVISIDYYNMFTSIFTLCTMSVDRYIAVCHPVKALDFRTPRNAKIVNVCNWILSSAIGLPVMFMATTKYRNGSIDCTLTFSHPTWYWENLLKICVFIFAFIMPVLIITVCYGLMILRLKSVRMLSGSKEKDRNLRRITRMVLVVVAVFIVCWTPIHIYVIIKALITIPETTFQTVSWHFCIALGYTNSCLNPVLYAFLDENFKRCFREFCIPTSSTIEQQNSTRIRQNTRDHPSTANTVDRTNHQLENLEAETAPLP
Experimental: as §3, §2

[5] = tested on: rat model of alcoholism; details: J. C. Froehlich et al. 1990; cited from earlier work
[6] = tested on: delta opioid receptor; details: U.S. Pat. No. 4,816,586; cited from earlier work
[7] = tested on: rats selectively bred for high voluntary ethanol drinking; details: Ser. No. 07/750,109; cited from earlier work
[8] = tested on: recovering alcoholics; details: J. R. Volpicelli et al. 1990; cited from earlier work
[9] = tested on: ethanol drinking; details: J. C. Froehlich et al. 1991; cited from earlier work
[10] = molecular target: T3, kappa opioid receptor (Cavia porcellus, UniProt P41144); test: GPI assay, antagonism of ethylketazocine (EK, kappa); format: cell-based, guinea pig; details: antagonist 100 nM, 15 min; agonist ethylketazocine (kappa)
T3 construct: a strip of longitudinal muscle with the myenteric plexus attached was prepared; from tissue; host or cells: guinea pig ileum, longitudinal muscle strip with myenteric plexus
T3 sequence (P41144 whole entry): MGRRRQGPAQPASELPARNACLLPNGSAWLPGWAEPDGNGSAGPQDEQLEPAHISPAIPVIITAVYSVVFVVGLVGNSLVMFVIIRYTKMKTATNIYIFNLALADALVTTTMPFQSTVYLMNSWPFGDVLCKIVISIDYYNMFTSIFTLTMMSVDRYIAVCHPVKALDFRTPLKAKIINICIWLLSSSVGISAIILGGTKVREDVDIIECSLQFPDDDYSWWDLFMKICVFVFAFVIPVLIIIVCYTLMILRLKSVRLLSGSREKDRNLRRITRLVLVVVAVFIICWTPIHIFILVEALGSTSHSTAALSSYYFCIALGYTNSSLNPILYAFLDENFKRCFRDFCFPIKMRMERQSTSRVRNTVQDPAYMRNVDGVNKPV
Experimental: as §3
Concentration-response curves were obtained in the absence (control) and the presence of the antagonist are expressed as IC50 values. The IC50 ratio represents the IC50 in the presence of the antagonist divided by the control IC50 value in the same tissue. […]

[11] = GPI, % Inhibition at 1000 nM (footnote 4)

7-(5'-Methoxy-2'-spiroindano)naltrexone and 7-(6'-Methoxy-2'-spiroindano)naltrexone [Compound 3c]
MVD Agonism % Inhibition [1]: 10.5%
GPI Agonism % Inhibition [2, 11]: -8.8%

O=C1[C@@H]2Oc3c(O)ccc4c3[C@@]23CCN(CC2CC2)[C@H](C4)[C@]3(O)CC12Cc1ccccc1C2 [Compound 3a]
Kb [3]: 0.78 nM
δ-antagonist activity (in words) [3]: potent δ-antagonist activity
Kb [4]: 41 nM

C=CCN1CC[C@]23c4c5ccc(O)c4O[C@H]2C(=O)CC[C@@]3(O)[C@H]1C5 [Naloxone]
ethanol and water intake [5]: suppress ethanol but not water intake

Oc1ccc2c3c1O[C@H]1c4[nH]c5ccccc5c4C[C@@]4(O)[C@@H](C2)N(CC2CC2)CC[C@]314 [NTI, naltrindole]
selectivity and potency at delta receptors [6]: highly selective
ethanol drinking and water intake [7]: unexpectedly prolonged suppression of ethanol drinking without altering water intake

7-(4',5'-Benz-2'-spiroindano)naltrexone and 7-(6',7'-Benz-2'-spiroindano)naltrexone [Compound 3e]
MVD Agonism % Inhibition [1]: 15.6%
GPI Agonism % Inhibition [2, 11]: 20.3%

O=C1CC[C@@]2(O)[C@H]3Cc4ccc(O)c5c4[C@@]2(CCN3CC2CC2)[C@H]1O5 [naltrexone]
incidence of relapse in recovering alcoholics [8]: reduce the incidence of relapse in recovering alcoholics

Oc1ccc2c3c1O[C@H]1c4oc5ccccc5c4C[C@@]4(O)[C@@H](C2)N(CC2CC2)CC[C@]314 [NTB]
ethanol drinking and water intake [7]: unexpectedly prolonged suppression of ethanol drinking without altering water intake

C=CCN(CC=C)[C@@H](Cc1ccc(O)cc1)C(=O)NC(C)(C)C(=O)NC(C)(C)C(=O)N[C@@H](Cc1ccccc1)C(=O)N[C@@H](CC(C)C)C(=O)O [ICI 174864, N,N-diallyl-Tyr-Aib-Aib-Phe-Leu-OH] ({Tyr(Nα,Nα-allyl2)}-[Aib][Aib]FL-OH)
duration of action [9]: very short duration of action
ethanol drinking [9]: strongly inhibits ethanol drinking

7-(4,-Methoxy-2,-spiroindano)naltrexone and 7-(7' -Methoxy-2'-spiroindano)-naltrexone [Compound 3b]
MVD Agonism % Inhibition [1]: 23.1%
GPI Agonism % Inhibition [2, 11]: -15.0%
Kb [4]: 13.4 nM

O=C1[C@@H]2Oc3c(O)ccc4c3[C@@]23CCN(CC2CC2)[C@H](C4)[C@]3(O)CC12Cc1cccc3cccc(c13)C2 [Compound 3f, 7-(2',3'-Dihydro-2'-spiroperinaphtheno)naltrexone]
MVD Antagonism IC50 Ratio (DADLE) [3]: 8
Kb [3]: 14.9 nM
GPI Antagonism IC50 Ratio (EK) [10]: 0.39
inhibition at 1 µM [1]: 13%
inhibition at 1 µM ([2]; Cavia porcellus, GPI, % Inhibition at 1000 nM (footnote 4), read-out: GPI Agonism % Inhibition): 16%
GPI Antagonism IC50 Ratio (Morphine) [4]: 0.89

O=C1[C@@H]2Oc3c(O)ccc4c3[C@@]23CCN(CC2CC2)[C@H](C4)[C@]3(O)CC12Cc1cc3ccccc3cc1C2 [Compound 3d, 7-(5',6'-Benz-2'-spiroindano)naltrexone]
MVD Antagonism IC50 Ratio (DADLE) [3]: 428
Kb [3]: 0.234 nM
δ-antagonist activity (in words) [3]: most potent antagonist
GPI Antagonism IC50 Ratio (EK) [10]: 0.18
inhibition at 1 µM [1]: 15.4%
agonist activity for μ-receptors (in words) [2]: potent agonist activity
IC50 ([2]; Cavia porcellus, read-out: GPI Agonism IC50): 253 nM
GPI Agonism Potency (relative to morphine) ([2]; GPI, morphine = 1): 0.47
GPI Antagonism IC50 Ratio (Morphine) [4]: 0.97
